Measured values reported in ChEMBL document CHEMBL1212807, “Chemical reprogramming of Caenorhabditis elegans germ cell fate” (Nat Chem Biol, 2010).
The source made the active and inactive calls. The rule behind the calls is not given here.

Assays:
Caenorhabditis elegans [1] = test: Induction of oocyte production in Caenorhabditis elegans Bristol isolate N2 with puf-1; lip-1 double mutant
Caenorhabditis elegans [2] = test: Induction of oocyte production in Caenorhabditis elegans Bristol isolate N2 with […]; lip-1 double mutant at 100 uM; type: functional
Caenorhabditis elegans [3] = test: Induction of oocyte production in Caenorhabditis elegans Bristol isolate N2 with […]; lip-1 double mutant assessed as expression of oocyte marker RME-2 50 uM; type: functional, organism-based
Caenorhabditis elegans [4] = test: Induction of oocyte production in Caenorhabditis elegans Bristol isolate N2 with […]; lip-1 double mutant assessed as change in oocyte-specific cellular morphology at 50 uM; type: functional
Caenorhabditis elegans [5] = test: Decrease in activated MPK-1/ERK levels in Caenorhabditis elegans Bristol isolate N2 by Western blot method at 50 uM; type: functional, organism-based

Question: For `N#CC(=C(/N)Sc1ccccc1N)/C(C#N)=C(\N)Sc1ccccc1N`, which EC50 (Caenorhabditis elegans [1]) is on record?
Answer: Its EC50 is 2000 nM.

Question: `COc1cccc(-c2cc(=O)c3ccccc3o2)c1N` was tested. Which Activity (Caenorhabditis elegans [2]) did it give?
Answer: Its Activity is 5.3%.

Question: Which Activity (Caenorhabditis elegans [3]) does the source give for `O=C(NOC[C@H](O)CO)c1ccc(F)c(F)c1Nc1ccc(I)cc1F` [MIRDAMETINIB] here?
Answer: The Activity was “Active”.

Question: And the Activity (Caenorhabditis elegans [4])?
Answer: Its Activity is 91%.

Question: And the Activity (Caenorhabditis elegans [5])?
Answer: The Activity was “Active”.
